Biological target: Proteasome chymotrypsin-like activity (S26 protein from RPMI8226 cells) (Homo sapiens, UniProt P28074)
Assay type: biochemical
Conditions: S26 protein from RPMI8226 cell extract 2 ug/well, substrate 20 uM, 37° C., 90 minutes; read-out: Proteasome chymotrypsin-like activity inhibition IC50
Method: The abilities to inhibit the proteasome activity of the compounds described in the Examples of the present invention and boronic acid drugs were evaluated as follows.
RPMI8226 cells, which is a multiple myeloma cell line, were cultured and then separated by a centrifuge, and washed twice with phosphate buffered saline (PBS). 20 mM of a tris-HCl (pH 8.0) buffer solution was added to the washed cells, and the cells were disrupted by a homogenizer and centrifuged to obtain S26 protein from the supernatant. Suc-Leu-Leu-Val-Tyr-AMC, for a fluorogenic substrate for the chymotrypsin-like activity of the proteasome, and Z-Leu-Leu-Glu-AMC, for a fluorogenic substrate for the caspase-like activity, were purchased from Calbiochem, EMD Millipore and used. Into each well of a 96-well plate (opaque, black round bottom), 20 ul of the S26 protein (final RPMI8226 cell extract concentration: 2 ug/well), 10 ul of S26 proteasome inhibitor serially diluted from 10 uM (final DMSO concentration: 0.5%), and 20 ul of the fluorogenic substrate for the proteasome chymotrypsin-like or caspase-like activity (final concentration: 20 uM) were added and mixed and allowed to react in a 37° C. incubator for 90 minutes. The fluorescence of the fluorogenic substrate was measured by FlexStation II Fluorometer (Molecular Devices). The fluorescence inhibited by the compound diluted at each concentration was measured as the relative percentage value for the amount obtained from the treatment only with the S26 protein and the fluorogenic substrate. IC50 (inhibitory concentration 50) was expressed in terms of a concentration that inhibits 50% of the maximum fluorescence induced by the fluorogenic substrate.

Chain of Proteasome chymotrypsin-like activity (S26 protein from RPMI8226 cells) (P28074 60-263 limits assumed): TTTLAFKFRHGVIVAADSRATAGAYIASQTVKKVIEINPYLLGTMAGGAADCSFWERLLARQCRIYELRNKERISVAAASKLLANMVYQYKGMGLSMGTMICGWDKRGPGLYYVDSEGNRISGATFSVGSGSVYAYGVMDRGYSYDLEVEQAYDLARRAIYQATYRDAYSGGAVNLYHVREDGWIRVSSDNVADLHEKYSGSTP

Structure (SMILES) | IC50 [nM]
CC(C)C[C@H](NC(=O)C1CC(c2ccccc2)=NO1)B(O)O (stereo partly drawn) [Example 1, ((1R)-3-methyl-1-(3-phenyl-4,5-dihydroisoxazol-5-carboxamido)butyl)boronic acid] | < 500
CC(C)C[C@H](NC(=O)C1CC(c2cnccn2)=NO1)B(O)O (stereo partly drawn) [Example 2, ((1R)-3-methyl-1-(3-(pyrazin-2-yl)-4,5-dihydroisoxazol-5-carboxamido)butyl)boronic acid] | < 1000
CC(C)C[C@H](NC(=O)C1CC(c2cc(Cl)ccc2Cl)=NO1)B(O)O (stereo partly drawn) [Example 3, ((1R)-1-(3-(2,5-dichlorophenyl)-4,5-dihydroisoxazol-5-carboxamido)-3-methylbutyl)boronic acid] | < 250
CCC1(C(=O)N[C@@H](CC(C)C)B(O)O)CC(c2ccccc2)=NO1 (stereo partly drawn) [Example 4, ((1R)-1-(5-ethyl-3-phenyl-4,5-dihydroisoxazol-5-carboxamido)-3-methylbutyl)boronic acid] | > 1000
CC(C)C[C@H](NC(=O)C1(C)CC(c2ccccc2)=NO1)B(O)O (stereo partly drawn) [Example 5, ((1R)-3-methyl-1-(5-methyl-3-phenyl-4,5-dihydroisoxazol-5-carboxamido)butyl)boronic acid] | > 1000
CCC1(C(=O)N[C@@H](CC(C)C)B(O)O)CC(c2cnccn2)=NO1 (stereo partly drawn) [Example 6, ((1R)-1-(5-ethyl-3-(pyrazin-2-yl)-4,5-dihydroisoxazol-5-carboxamido)-3-methylbutyl)boronic acid] | > 1000
CC(C)C[C@H](NC(=O)[C@]1(Cc2ccccc2)CC(c2ccccc2)=NO1)B(O)O [Example 7, ((R)-1-((S)-5-benzyl-3-phenyl-4,5-dihydroisoxazol-5-carboxamido)-3-methylbutyl)boronic acid] | < 500
CC(C)C[C@H](NC(=O)C1CC(Cc2ccccc2)=NO1)B(O)O (stereo partly drawn) [Example 8, ((1R)-1-(3-benzyl-4,5-dihydroisoxazol-5-carboxamido)-3-methylbutyl)boronic acid] | < 250
CC(C)C[C@H](NC(=O)C1CC(C2CCCCC2)=NO1)B(O)O (stereo partly drawn) [Example 9, ((1R)-1-(3-cyclohexyl-4,5-dihydroisoxazol-5-carboxamido)-3-methylbutyl)boronic acid] | < 500
CC(C)C[C@H](NC(=O)C1CC(C2CC2)=NO1)B(O)O (stereo partly drawn) [Example 10, ((1R)-1-(3-cyclopropyl-4,5-dihydroisoxazol-5-carboxamido)-3-methylbutyl)boronic acid] | < 500
CC(C)C[C@H](NC(=O)C1CC(CCc2ccccc2)=NO1)B(O)O (stereo partly drawn) [Example 11, ((1R)-3-methyl-1-(3-penetyl-4,5-dihydroisoxazol-5-carboxamido)butyl)boronic acid] | < 250
CC(C)C[C@H](NC(=O)C1CC(c2nccc3ccccc23)=NO1)B(O)O (stereo partly drawn) [Example 12, ((1R)-1-(3-(isoquinolin-1-yl)-4,5-dihydroisoxazol-5-carboxamido)-3-methylbutyl)boronic acid] | < 250
CC(C)C[C@H](NC(=O)[C@]1(C(C)C)CC(c2nccc3ccccc23)=NO1)B(O)O [Example 13, ((R)-1-((R)-5-isopropyl-3-(isoquinolin-1-yl)-4,5-dihydroisoxazol-5-carboxamido)-3-methylbutyl)boronic acid] | > 1000
CC(C)C[C@H](NC(=O)C1CC(c2cccc(C(C)(C)C)c2)=NO1)B(O)O (stereo partly drawn) [Example 14, ((1R)-1-(3-(3-(tert-butyl)phenyl)-4,5-dihydroisoxazol-5-carboxamido)-3-methylbutyl)boronic acid] | < 250
CC(C)C[C@H](NC(=O)C1CC(c2ccc(C(C)(C)C)cc2)=NO1)B(O)O (stereo partly drawn) [Example 15, ((1R)-1-(3-(4-(tert-butyl)phenyl)-4,5-dihydroisoxazol-5-carboxamido)-3-methylbutyl)boronic acid] | < 250
CC(=O)Nc1ccc(C2=NOC(C(=O)N[C@@H](CC(C)C)B(O)O)C2)cc1 (stereo partly drawn) [Example 16, ((1R)-1-(3-(4-acetamidophenyl)-4,5-dihydroisoxazol-5-carboxamido)-3-methylbutyl)boronic acid] | < 250
CC(C)C[C@H](NC(=O)C1CC(c2ccc3ccccc3c2)=NO1)B(O)O (stereo partly drawn) [Example 17, ((1R)-3-methyl-1-(3-(naphthalen-2-yl)-4,5-dihydroisoxazol-5-carboxamido)butyl)boronic acid] | < 500
CC(C)C[C@H](NC(=O)C1CC(Cc2ccc3ccccc3c2)=NO1)B(O)O (stereo partly drawn) [Example 18, ((1R)-3-methyl-1-(3-(naphthalen-2-ylmethyl)-4,5-dihydroisoxazol-5-carboxamido)butyl)boronic acid] | < 500
CC(C)C[C@H](NC(=O)C1CC(c2cccc3ccccc23)=NO1)B(O)O (stereo partly drawn) [Example 19, ((1R)-3-methyl-1-(3-(naphthalen-1-yl)-4,5-dihydroisoxazol-5-carboxamido)butyl)boronic acid] | < 100
CC(C)C[C@H](NC(=O)C1CC(c2cccc(-c3ccccc3)c2)=NO1)B(O)O (stereo partly drawn) [Example 20, ((1R)-1-(3-([1,1′-biphenyl]-3-yl)-4,5-dihydroisoxazol-5-carboxamido)-3-methylbutyl)boronic acid] | < 250
CC(C)C[C@H](NC(=O)C1CC(c2ccc3ccccc3n2)=NO1)B(O)O (stereo partly drawn) [Example 21, ((1R)-3-methyl-1-(3-(quinolin-2-yl)-4,5-dihydroisoxazol-5-carboxamido)butyl)boronic acid] | < 250
CC(C)C[C@H](NC(=O)C1CC(c2cc3ccccc3cn2)=NO1)B(O)O (stereo partly drawn) [Example 22, ((1R)-1-(3-(isoquinolin-3-yl)-4,5-dihydroisoxazol-5-carboxamido)-3-methylbutyl)boronic acid] | < 250
CC(C)C[C@H](NC(=O)C1CC(c2ccnc3ccccc23)=NO1)B(O)O (stereo partly drawn) [Example 23, ((1R)-3-methyl-1-(3-(quinolin-4-yl)-4,5-dihydroisoxazol-5-carboxamido)butyl)boronic acid] | < 250
CC(C)C[C@H](NC(=O)[C@]1(Cc2ccccc2)CC(c2cccc(C(C)(C)C)c2)=NO1)B(O)O [Example 24, ((R)-1-((S)-5-benzyl-3-(3-(tert-butyl)phenyl)-4,5-dihydroisoxazol-5-carboxamido)-3-methylbutyl)boronic acid] | < 500

Next, values leading:

IC50 [nM] | Structure (SMILES)
< 100 | CC(C)C[C@H](NC(=O)C1CC(c2cccc(-c3ccccc3)n2)=NO1)B(O)O (stereo partly drawn) [Example 25, ((1R)-3-methyl-1-(3-(6-phenylpyridin-2-yl)-4,5-dihydroisoxazol-5-carboxamido)butyl)boronic acid]
< 50 | CC(C)C[C@H](NC(=O)C1CC(c2ccc(-c3ccccn3)cc2)=NO1)B(O)O (stereo partly drawn) [Example 26, ((1R)-3-methyl-1-(3-(4-(pyridin-2-yl)phenyl)-4,5-dihydroisoxazol-5-carboxamido)butyl)boronic acid]
< 250 | CC(C)C[C@H](NC(=O)C1CC(c2ccc(-c3ccccc3)cc2)=NO1)B(O)O (stereo partly drawn) [Example 27, ((1R)-1-(3-([1,1′-biphenyl]-4-yl)-4,5-dihydroisoxazol-5-carboxamido)-3-methylbutyl)boronic acid]
< 250 | CC(C)C[C@H](NC(=O)C1CC(c2ccc(-c3cccc(F)c3)cn2)=NO1)B(O)O (stereo partly drawn) [Example 28, ((1R)-1-(3-(5-(3-fluorophenyl)pyridin-2-yl)-4,5-dihydroisoxazol-5-carboxamido)-3-methylbutyl)boronic acid]
< 500 | CC(C)C[C@H](NC(=O)C1CC(c2cnc3ccccc3c2)=NO1)B(O)O (stereo partly drawn) [Example 29, ((1R)-3-methyl-1-(3-(quinolin-3-yl)-4,5-dihydroisoxazol-5-carboxamido)butyl)boronic acid]
< 1000 | CC(C)C[C@H](NC(=O)C1CC(c2ccc3ncccc3c2)=NO1)B(O)O (stereo partly drawn) [Example 30, ((1R)-3-methyl-1-(3-(quinolin-6-yl)-4,5-dihydroisoxazol-5-carboxamido)butyl)boronic acid]
< 50 | CC(C)C[C@H](NC(=O)C1CC(c2ccc(-c3cccnc3)cc2)=NO1)B(O)O (stereo partly drawn) [Example 31, ((1R)-3-methyl-1-(3-(4-(pyridin-3-yl)phenyl)-4,5-dihydroisoxazol-5-carboxamido)butyl)boronic acid]
< 100 | CC(C)C[C@H](NC(=O)C1CC(c2ccc(-c3ccccc3)nc2)=NO1)B(O)O (stereo partly drawn) [Example 32, ((1R)-3-methyl-1-(3-(6-phenylpyridin-3-yl)-4,5-dihydroisoxazol-5-carboxamido)butyl)boronic acid]
< 100 | CC(C)C[C@H](NC(=O)C1CC(c2cncc(-c3ccccc3)c2)=NO1)B(O)O (stereo partly drawn) [Example 33, ((1R)-3-methyl-1-(3-(5-phenylpyridin-3-yl)-4,5-dihydroisoxazol-5-carboxamido)butyl)boronic acid]
< 100 | CC(C)C[C@H](NC(=O)C1CC(c2cccc(-c3ccccn3)c2)=NO1)B(O)O (stereo partly drawn) [Example 34, ((1R)-3-methyl-1-(3-(3-(pyridin-2-yl)phenyl)-4,5-dihydroisoxazol-5-carboxamido)butyl)boronic acid]
< 250 | CC(C)C[C@H](NC(=O)C1(Cc2ccccc2)CC(c2cccc(-c3nccc4ccccc34)c2)=NO1)B(O)O (stereo partly drawn) [Example 36, ((1R)-1-(5-benzyl-3-(3-(isoquinolin-1-yl)phenyl)-4,5-dihydroisoxazol-5-carboxamido)-3-methylbutyl)boronic acid]
